# Assay results taken from article PMC9735679, “Identification and Evolution of a Natural Tetr Protein Based on Molecular Docking and Development of a Fluorescence Polari-Zation Assay for Multi-Detection of 10 Tetracyclines in Milk” (Foods, 2022).
# Like-named read-outs stand apart in the source and are kept apart here.
# Experiments:
# Assay type in all cases: binding
# natural TetR [1] = target: T1, natural TetR (Escherichia coli, UniProt P04483); assay: Surface plasmon resonance affinity, natural TetR; conditions: for Kd: KD (equilibrium dissociation constant, Kd/Ka); for Kd / koff (dissociation rate constant): SPR
# T1 construct: made in house
# Procedure: (§1) After the experiments, the association constant (Ka), the dissociation constant (Kd), and the equilibrium dissociation constant (KD = Kd/Ka) for each drug were calculated. For convenience in comparing their affinities, the absolute affinity constant (KA = […]) for each drug was also calculated.
# TetR mutant [2] = target: T2, TetR mutant (Escherichia coli, UniProt P04483, H139W); assay: Fluorescence polarization assay (FPA) with TetR mutant; conditions: for LOD (limit of detection, IC10) / inhibition ratio (1-FP/FP0) / FP values at 0 and 100 ng/mL: TetR mutant; for LOD (limit of detection, IC10): FPA, FA-MC tracer, drugs diluted with blank milk extract; for inhibition ratio (1-FP/FP0): 100 ng/mL; for FP values at 0 and 100 ng/mL: either tracer (FITC-MC or FA-MC), specificity test
# T2 construct: made in house; host or cells: E. coli Rosetta-gami(BL21), vector pET28a
# Procedure: (§2) The FPA method was performed as follows. A total of 50 μL mutant, 50 μL TCs solution, and 50 μL fluorescent tracer were added into the wells of a 96-well microplate (in triplicate) and incubated for 2 min. Then the fluorescence polarization (FP) value of each well was recorded (λex 485 nm, λem 528 nm, emission cutoff of 515 nm). During the experiments, the two fluorescent tracers were compared, and several other parameters were optimized, including tracer concentration, mutant concentration, Mg^2+ concentration and incubation time. The 10 TCs and several other classes of drugs were all tested by this method. The competitive curve was developed by plotting the FP/FP0 values (the fluorescence polarization value at each concentration divided by that of zero concentration) versus the concentrations of the TCs (log C). Based on the developed competitive curve, the half of inhibition (IC50) and the limit of detection (IC10) for each drug were determined, respectively.
# For obtaining the best method performance, several parameters were optimized with DMC as the representative. Firstly, the concentrations of FA-MC and the mutant were optimized. During the experiments, the FA-MC and the mutant at different concentrations were mixed with the same concentration of DMC to perform the assay. […] Secondly, the concentration of Mg^2+ (MgCl2) was optimized. […] Thirdly, the competition time was optimized.
# (§3) This is the first study reporting an FPA method for the determination of TCs. Under the optimal conditions, the 10 TCs were diluted with the extracts of a blank milk sample to be analyzed, respectively. […] During the experiments, the natural TetR was also used to perform the FPA method as described above.
# natural TetR [3] = target: T1, natural TetR; assay: Fluorescence polarization assay (FPA) with natural TetR
# Procedure: as §2, §3
# TetR mutant [4] = target: T2, TetR mutant; assay: Surface plasmon resonance affinity, TetR mutant; conditions: SPR; for Kd: KD (equilibrium dissociation constant, Kd/Ka)
# Procedure: as §1
# The primers were designed according to the virtual model: mutant for, […]; mutant rev, […]. The amplified gene was inserted into pET28a to construct the express vector that was transformed into E. coli Rosetta-gami(BL21) to express the mutant, and these procedures were according to our recent report. The obtained TetR mutant was characterized by using SDS-PAGE and western blotting according to our recent report, and its recognition ability for the 10 TCs was evaluated by the following FPA method. Furthermore, its recognition mechanisms and affinities for the 10 TCs were also determined as described above.
# [5] = read-out: Ka (association constant), TetR without Mg2+, SPR
# [6] = read-out: Ka (association constant), TetR+Mg2+, SPR
Compound,Kd (natural TetR [1]; TetR without Mg2+),Kd (natural TetR [1]; TetR+Mg2+),koff (dissociation rate constant) (natural TetR [1]; TetR without Mg2+),koff (dissociation rate constant) (natural TetR [1]; TetR+Mg2+),kon (natural TetR [1]; [5]),kon (natural TetR [1]; [6]),IC50 (TetR mutant [2]),"LOD (limit of detection, IC10) (TetR mutant [2])",IC50 (natural TetR [3]),Kd (TetR mutant [4]; TetR mutant without Mg2+),Kd (TetR mutant [4]; TetR mutant+Mg2+),Dissociation rate constant (koff) (TetR mutant [4]; TetR mutant without Mg2+),Dissociation rate constant (koff) (TetR mutant [4]; TetR mutant+Mg2+),inhibition ratio (1-FP/FP0) (TetR mutant [2]; tracer FA-MC),inhibition ratio (1-FP/FP0) (TetR mutant [2]; tracer FITC-MC),FP values at 0 and 100 ng/mL (TetR mutant [2])
"CN(C)[C@@H]1C(O)=C(C(N)=O)C(=O)[C@@]2(O)C(O)=C3C(=O)c4c(O)ccc(Cl)c4[C@@](C)(O)[C@H]3C[C@@H]12 [CTC, chlortetracycline]",4990 nM,2560 nM,0.0148 s⁻¹,0.0113 s⁻¹,2970 M⁻¹ s⁻¹,4430 M⁻¹ s⁻¹,115 nM,1.4 ng/mL,167 nM,16.3 nM,9.11 nM,0.000822 s⁻¹,0.000404 s⁻¹,–,–,–
"C[C@H]1c2cccc(O)c2C(=O)C2=C(O)[C@]3(O)C(=O)C(C(N)=O)=C(O)[C@@H](N(C)C)[C@@H]3[C@@H](O)[C@@H]21 [DC, doxycycline]",21.1 nM,41.1 nM,0.00113 s⁻¹,0.0018 s⁻¹,53400 M⁻¹ s⁻¹,43900 M⁻¹ s⁻¹,68.2 nM,1.0 ng/mL,82.4 nM,0.249 nM,0.641 nM,6.65e-05 s⁻¹,0.000113 s⁻¹,–,–,–
"CN(C)[C@@H]1C(O)=C(C(N)=O)C(=O)[C@@]2(O)C(O)=C3C(=O)c4c(O)ccc(Cl)c4[C@@H](O)[C@H]3C[C@@H]12 [DMC, demeclocycline]",74.4 nM,27.6 nM,0.000206 s⁻¹,0.000127 s⁻¹,2770 M⁻¹ s⁻¹,4610 M⁻¹ s⁻¹,33.3 nM,0.4 ng/mL,66.7 nM,3.1 nM,0.0928 nM,1.72e-05 s⁻¹,4.7e-06 s⁻¹,69%,52%,–
"CN(C)[C@@H]1C(O)=C(C(=O)NCNCCCC[C@H](N)C(=O)O)C(=O)[C@@]2(O)C(O)=C3C(=O)c4c(O)cccc4[C@@](C)(O)[C@H]3C[C@@H]12 [LMC, Lymecycline]",366 nM,263 nM,0.00116 s⁻¹,0.00121 s⁻¹,3170 M⁻¹ s⁻¹,4590 M⁻¹ s⁻¹,75.8 nM,1.0 ng/mL,92.3 nM,2.54 nM,1.09 nM,7.25e-05 s⁻¹,0.00011 s⁻¹,–,–,–
"CN(C)c1ccc(O)c2c1C[C@H]1C[C@H]3[C@H](N(C)C)C(O)=C(C(N)=O)C(=O)[C@@]3(O)C(O)=C1C2=O [MC, minocycline]",112 nM,70.3 nM,0.000507 s⁻¹,0.000511 s⁻¹,4540 M⁻¹ s⁻¹,7270 M⁻¹ s⁻¹,52 nM,0.5 ng/mL,94.9 nM,3.1 nM,0.191 nM,4.23e-05 s⁻¹,3.19e-05 s⁻¹,–,–,–
"C=C1c2cccc(O)c2C(=O)C2=C(O)[C@]3(O)C(=O)C(C(N)=O)=C(O)[C@@H](N(C)C)[C@@H]3[C@@H](O)[C@H]12 [MTC, Methacycline]",111 nM,122 nM,0.00016 s⁻¹,0.000162 s⁻¹,1440 M⁻¹ s⁻¹,1330 M⁻¹ s⁻¹,110 nM,1.5 ng/mL,114 nM,3.97 nM,0.3 nM,5.71e-06 s⁻¹,5.59e-06 s⁻¹,–,–,–
"CN(C)[C@@H]1C(O)=C(C(N)=O)C(=O)[C@@]2(O)C(O)=C3C(=O)c4c(O)cccc4[C@@](C)(O)[C@H]3[C@H](O)[C@@H]12 [OTC, oxytetracycline]",965 nM,409 nM,0.00199 s⁻¹,0.00144 s⁻¹,2060 M⁻¹ s⁻¹,3520 M⁻¹ s⁻¹,78.2 nM,0.8 ng/mL,130 nM,1.76 nM,1.48 nM,7.96e-05 s⁻¹,0.00012 s⁻¹,–,–,–
"CN(C)[C@@H]1C(O)=C(C(N)=O)C(=O)[C@@]2(O)C(O)=C3C(=O)c4c(O)cccc4C[C@H]3C[C@@H]12 [SC, Sancycline]",59.5 nM,70.2 nM,0.000127 s⁻¹,0.000162 s⁻¹,2140 M⁻¹ s⁻¹,2310 M⁻¹ s⁻¹,70 nM,0.7 ng/mL,106 nM,0.593 nM,0.417 nM,6.35e-06 s⁻¹,5.79e-06 s⁻¹,–,–,–
"CN(C)[C@@H]1C(O)=C(C(N)=O)C(=O)[C@@]2(O)C(O)=C3C(=O)c4c(O)cccc4[C@@](C)(O)[C@H]3C[C@@H]12 [TC, tetracycline]",7690 nM,4790 nM,0.00156 s⁻¹,0.00133 s⁻¹,203 M⁻¹ s⁻¹,278 M⁻¹ s⁻¹,85.5 nM,1.3 ng/mL,146 nM,768 nM,62.1 nM,0.000156 s⁻¹,0.000121 s⁻¹,–,–,–
"CN(C)c1cc(NC(=O)CNC(C)(C)C)c(O)c2c1C[C@H]1C[C@H]3[C@H](N(C)C)C(O)=C(C(N)=O)C(=O)[C@@]3(O)C(O)=C1C2=O [TIC, tigecycline]",10.4 nM,28.2 nM,1.04e-05 s⁻¹,1.78e-05 s⁻¹,1010 M⁻¹ s⁻¹,633 M⁻¹ s⁻¹,27.3 nM,0.4 ng/mL,52.6 nM,0.104 nM,0.104 nM,9.45e-07 s⁻¹,1.78e-06 s⁻¹,–,–,–
CN(C)CCCN1c2ccccc2Sc2ccc(Cl)cc21 [chlorpromazine],–,–,–,–,–,–,–,–,–,–,–,–,–,–,–,comparably high
O=C(O)c1cn(C2CC2)c2cc(N3CCNCC3)c(F)cc2c1=O [ciprofloxacin],–,–,–,–,–,–,–,–,–,–,–,–,–,–,–,comparably high
CN1C(=O)CN=C(c2ccccc2)c2cc(Cl)ccc21 [diazepam],–,–,–,–,–,–,–,–,–,–,–,–,–,–,–,comparably high
[H]/N=C(/N)N[C@H]1[C@H](O)[C@@H](O)[C@H](O[C@@H]2O[C@@H](C)[C@](O)(C=O)[C@H]2O[C@@H]2O[C@@H](CO)[C@H](O)[C@@H](O)[C@@H]2NC)[C@@H](N/C(N)=N\[H])[C@@H]1O [streptomycin],–,–,–,–,–,–,–,–,–,–,–,–,–,–,–,comparably high
